Measurements taken from PubChem BioAssay (NCI).
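A five-concentration, 48-hour dose response in 96-well plates underlies each endpoint, interpolated linearly between surrounding concentrations. At the TGI there is no net growth.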

Tests used:
Assay in all cases: NCI-60 cell line screen, 48 h
XF 498 CNS = system: XF 498 CNS
SNB-75 CNS = system: SNB-75 CNS
UACC-62 melanoma = system: UACC-62 melanoma
ACHN renal = system: ACHN renal
OVCAR-5 ovarian = system: OVCAR-5 ovarian
SK-MEL-2 melanoma = system: SK-MEL-2 melanoma
SK-MEL-28 melanoma = system: SK-MEL-28 melanoma
IGROV1 ovarian = system: IGROV1 ovarian
SK-MEL-5 melanoma = system: SK-MEL-5 melanoma
786-0 renal = system: 786-0 renal
SK-OV-3 ovarian = system: SK-OV-3 ovarian
SF-295 CNS = system: SF-295 CNS
TK-10 renal = system: TK-10 renal
UACC-257 melanoma = system: UACC-257 melanoma
KM12 colon = system: KM12 colon
RXF 393 renal = system: RXF 393 renal
SF-268 CNS = system: SF-268 CNS
HCC-2998 colon = system: HCC-2998 colon
A549 NSCLC = system: A549 NSCLC
HOP-62 NSCLC = system: HOP-62 NSCLC
M19-MEL melanoma = system: M19-MEL melanoma
DMS 114 small cell lung = system: DMS 114 small cell lung
HOP-92 NSCLC = system: HOP-92 NSCLC
MALME-3M melanoma = system: MALME-3M melanoma
SW-620 colon = system: SW-620 colon
HT29 colon = system: HT29 colon
HL-60(TB) leukemia = system: HL-60(TB) leukemia
NCI-H226 lung = system: NCI-H226 lung
RXF-631 renal = system: RXF-631 renal
EKVX NSCLC = system: EKVX NSCLC
DLD-1 colon = system: DLD-1 colon
OVCAR-8 ovarian = system: OVCAR-8 ovarian
SN12C renal = system: SN12C renal
HCT-15 colon = system: HCT-15 colon
SF-539 CNS = system: SF-539 CNS
OVCAR-4 ovarian = system: OVCAR-4 ovarian
OVCAR-3 ovarian = system: OVCAR-3 ovarian
NCI-H23 lung = system: NCI-H23 lung
LXFL 529 NSCLC = system: LXFL 529 NSCLC
RPMI-8226 leukemia = system: RPMI-8226 leukemia
KM20L2 colon = system: KM20L2 colon
MOLT-4 leukemia = system: MOLT-4 leukemia
K-562 leukemia = system: K-562 leukemia
CCRF-CEM leukemia = system: CCRF-CEM leukemia
LOX IMVI melanoma = system: LOX IMVI melanoma
NCI-H460 lung = system: NCI-H460 lung
U251 CNS = system: U251 CNS
CAKI-1 renal = system: CAKI-1 renal
UO-31 renal = system: UO-31 renal
SNB-78 CNS = system: SNB-78 CNS
NCI-H522 lung = system: NCI-H522 lung
A498 renal = system: A498 renal
M14 melanoma = system: M14 melanoma
COLO 205 colon = system: COLO 205 colon
SR leukemia = system: SR leukemia
SNB-19 CNS = system: SNB-19 CNS
HCT-116 colon = system: HCT-116 colon
DMS 273 small cell lung = system: DMS 273 small cell lung
HOP-18 NSCLC = system: HOP-18 NSCLC

Measured: TGI

O=C1CCC2(c3ccccc3)Nc3cc(Cl)ccc3N12 (stereo not given)
57.3 µM: DMS 114 small cell lung
32.4 µM: SK-MEL-5 melanoma
63.3 µM: UO-31 renal
58.6 µM: RPMI-8226 leukemia
98.7 µM: A498 renal
60.7 µM: NCI-H23 lung
64.9 µM: SNB-75 CNS
71.5 µM: UACC-257 melanoma
31.6 µM: COLO 205 colon
62.8 µM: OVCAR-3 ovarian
82.6 µM: M19-MEL melanoma
56.4 µM: UACC-62 melanoma
57.9 µM: MOLT-4 leukemia
48.1 µM: HL-60(TB) leukemia
85.1 µM: SK-OV-3 ovarian
65.1 µM: NCI-H226 lung
96 µM: SF-295 CNS
87.1 µM: CAKI-1 renal
75.2 µM: CCRF-CEM leukemia
96.1 µM: ACHN renal
75.5 µM: MALME-3M melanoma
53.5 µM: SK-MEL-2 melanoma
40.7 µM: HOP-92 NSCLC
56.6 µM: XF 498 CNS
not listed: SR leukemia | SNB-19 CNS | HCT-116 colon | DMS 273 small cell lung | HOP-18 NSCLC
> 100 µM: all other assays above

CCC1=CC2CC(C(=O)OC)C1(N(C)C)C2=O (stereo not given)
not listed: XF 498 CNS | SNB-75 CNS | SK-MEL-2 melanoma | SK-MEL-5 melanoma | 786-0 renal | HCC-2998 colon | MALME-3M melanoma | SW-620 colon | NCI-H226 lung | DLD-1 colon | SN12C renal | HCT-15 colon | SF-539 CNS | OVCAR-4 ovarian | OVCAR-3 ovarian | LXFL 529 NSCLC | RPMI-8226 leukemia | KM20L2 colon | K-562 leukemia | LOX IMVI melanoma | CAKI-1 renal | COLO 205 colon | HOP-18 NSCLC
> 100 µM: all other assays above

COC(=O)[C@@]12OC[C@]34C([C@@H](O)C1O)[C@@]1(C)CC(=O)C(O)=C(C)C1C[C@H]3OC(=O)[C@H](OC(=O)CC(C)C(F)(F)F)[C@H]42 (stereo not given in full)
0.214 µM: U251 CNS
0.128 µM: DMS 114 small cell lung
0.067 µM: SF-539 CNS
37.5 µM: SNB-78 CNS
0.146 µM: HT29 colon
0.191 µM: SF-295 CNS
0.188 µM: XF 498 CNS
0.0717 µM: NCI-H23 lung
0.594 µM: HOP-62 NSCLC
0.362 µM: SK-MEL-2 melanoma
0.0554 µM: NCI-H460 lung
0.0215 µM: SR leukemia
0.121 µM: A498 renal
1.07 µM: CAKI-1 renal
0.911 µM: SN12C renal
0.111 µM: SK-MEL-28 melanoma
0.0731 µM: SK-MEL-5 melanoma
0.491 µM: OVCAR-8 ovarian
1.29 µM: TK-10 renal
0.131 µM: HOP-92 NSCLC
0.644 µM: SF-268 CNS
0.124 µM: M14 melanoma
0.492 µM: A549 NSCLC
0.205 µM: M19-MEL melanoma
0.561 µM: OVCAR-4 ovarian
0.509 µM: DLD-1 colon
0.708 µM: 786-0 renal
1.18 µM: OVCAR-5 ovarian
0.172 µM: KM20L2 colon
0.312 µM: MOLT-4 leukemia
2.79 µM: HOP-18 NSCLC
0.108 µM: SNB-19 CNS
0.0438 µM: MALME-3M melanoma
0.531 µM: SK-OV-3 ovarian
0.0629 µM: UACC-62 melanoma
0.415 µM: COLO 205 colon
1.37 µM: SW-620 colon
0.0426 µM: DMS 273 small cell lung
0.999 µM: EKVX NSCLC
0.187 µM: SNB-75 CNS
0.195 µM: LXFL 529 NSCLC
1.06 µM: UO-31 renal
1.05 µM: IGROV1 ovarian
0.301 µM: ACHN renal
0.563 µM: KM12 colon
0.471 µM: RXF 393 renal
0.0175 µM: HL-60(TB) leukemia
1.77 µM: HCT-15 colon
0.18 µM: HCT-116 colon
0.547 µM: UACC-257 melanoma
0.0599 µM: HCC-2998 colon
0.0512 µM: RPMI-8226 leukemia
0.0338 µM: NCI-H226 lung
0.088 µM: NCI-H522 lung

CSc1nc(-c2ccccc2)c2c(n1)-c1ccccc1CC2
not listed: ACHN renal | HCC-2998 colon | HCT-15 colon | SF-539 CNS | SNB-78 CNS | DMS 273 small cell lung
> 100 µM: all other assays above

C=CCc1ccc(O)c(-c2cc(C3Oc4c(-c5cc(CC=C)ccc5O)cc(O)cc4[C@@H]3CO)ccc2O)c1 (stereo not given in full)
31.1 µM: SW-620 colon
89.1 µM: UACC-62 melanoma
65.6 µM: RPMI-8226 leukemia
82.5 µM: SF-268 CNS
64.9 µM: HOP-92 NSCLC
43.7 µM: CCRF-CEM leukemia
38.7 µM: NCI-H522 lung
38.5 µM: HL-60(TB) leukemia
60.3 µM: KM20L2 colon
38.6 µM: DLD-1 colon
52.5 µM: LXFL 529 NSCLC
68.7 µM: HCC-2998 colon | U251 CNS
29.3 µM: HCT-15 colon
44.5 µM: DMS 273 small cell lung
56.3 µM: SF-539 CNS
51.6 µM: IGROV1 ovarian
61.5 µM: A498 renal
55.8 µM: RXF 393 renal
74.5 µM: OVCAR-3 ovarian
43.3 µM: HCT-116 colon
45.9 µM: SK-MEL-2 melanoma
76.8 µM: SK-MEL-28 melanoma
79.3 µM: HT29 colon
28.1 µM: DMS 114 small cell lung
65 µM: SK-MEL-5 melanoma
34.1 µM: K-562 leukemia
76.4 µM: NCI-H23 lung
47.7 µM: SR leukemia
85.7 µM: KM12 colon
78.7 µM: SNB-19 CNS
75 µM: HOP-62 NSCLC
32.3 µM: LOX IMVI melanoma
not listed: XF 498 CNS | RXF-631 renal | MOLT-4 leukemia
> 100 µM: all other assays above

COc1ccc2c(C(=O)O)cc3cc(OC)c(OC)cc3c2c1
not listed: HOP-62 NSCLC | DMS 114 small cell lung | OVCAR-4 ovarian | CAKI-1 renal | A498 renal
> 100 µM: all other assays above

O=C(O)CCC1CCc2cccc3occ1c23 (stereo not given)
not listed: XF 498 CNS | SR leukemia | HOP-18 NSCLC
> 100 µM: all other assays above

Cc1cccc(C(C)(C)C)c1NC(=O)C(=O)C(c1cnc2ccccc2n1)[N+](=O)[O-] (stereo not given)
not listed: RXF-631 renal | OVCAR-3 ovarian
> 100 µM: all other assays above
